The numbers were not newly measured in patent US20080138440A1, “Methods of diagnosing and alleviating gadolinium toxicity” (priority 2006, published 2008), which cites them from elsewhere.

The conditions of the data set: high doses; cited from earlier work.

On to `CNC[C@H](O)[C@@H](O)[C@H](O)[C@H](O)CO.CNC[C@H](O)[C@@H](O)[C@H](O)[C@H](O)CO.O=C([O-])CN(CCN(CC(=O)[O-])CC(=O)O)CCN(CC(=O)[O-])CC(=O)O.[Gd+3]` [gadopentetate dimeglumine injection, gadopentetate dimeglumine], for which the arrhythmias result was “Arrhythmias have been noted”.
